This is an account of results in patent US11485745B2, “Amido spirocyclic amide and sulfonamide derivatives” (Valo Health, Inc., priority 2012, dated 2022).

The subject of this test is A2780 cells. As to the kind of experiment: In-Vitro Cell Proliferation Assay (A2780, sulforhodamine B, 72 hours). The format is cell-based. The following applies: SRB.

For the compound `O=C(CCC1CCCCC1)N1CCC2(CC1)CC2CNC(=O)N1Cc2ccncc2C1` (stereo not drawn) [Example 197, N-[[6-(3-cyclohexylpropanoyl)-6-azaspiro[2.5]octan-2-yl]methyl]-1,3-dihydropyrrolo[3,4-c]pyridine-2-carboxamide], the midpoint of inhibition (Homo sapiens, A2780, 72 h), the IC50, lay at 9.61 nM. Compound `CCS(=O)(=O)N1CCC2(CC1)CC2CNC(=O)c1cc2cnccc2[nH]1` (stereo not drawn) [Example 14, N-[(8-ethylsulfonyl-8-azasprio[2.5]octan-2-yl)methyl]-1H-pyrrolo[3,2-c]pyridine-2-carboxamide] gave an IC50 (Homo sapiens, A2780, 72 h) of 2000 nM. On to `CC(C)(O)COC(=O)N1CCC2(CC1)CC2CNC(=O)c1cc2cnccc2[nH]1` (stereo not drawn) [Example 401, (2-hydroxy-2-methyl-propyl) 2-[(1H-pyrrolo[3,2-c]pyridine-2-carbonylamino)methyl]-6-azaspiro[2.5]octane-6-carboxylate], for which, under “Homo sapiens, A2780, 72 h”, it took 2000 nM to reach half-maximal inhibition (IC50). Still for that read-out and setting: the figure for `CCC(=O)N1CCC2(CC1)CC2CNC(=O)c1cc2cnccc2[nH]1` (stereo not drawn) [Example 20] is 2000 nM; for `O=C(CCc1cccnc1)N1CCC2(CC1)CC2CNC(=O)N1Cc2ccncc2C1` (stereo not drawn) [Example 209, N-[[6-[3-(3-pyridyl)propanoyl]-6-azaspiro[2.5]octan-2-yl]methyl]-1,3-dihydropyrrolo[3,4-c]pyridine-2-carboxamide] it is 203 nM; for `CC(C)(C)CS(=O)(=O)N1CCC2(CC1)CC2CNC(=O)c1cc2ccncc2[nH]1` (stereo not drawn) [Example 379, N-[[6-(2,2-dimethylpropylsulfonyl)-6-azaspiro[2.5]octan-2-yl]methyl]-1H-pyrrolo[3,2-c]pyridine-2-caarboxamide] it is 2000 nM. `CC1(C)CC1C(=O)N1CCC2(CC1)CC2CNC(=O)c1cc2ccncc2o1` (stereo not drawn) [Example 373, N-[[6-(2,2-dimethylcyclopropanecarbonyl)-6-azaspiro[2.5]octan-2-yl]methyl]furo[2,3-c]pyridine-2-carboxamide]: the IC50 worked out at 7.03 nM. As to `CC(C)(C)CS(=O)(=O)N1CCC2(CC1)CC2CNC(=O)N1Cc2ccncc2C1` (stereo not drawn) [Example 381, N-[[6-(2,2-dimethylpropylsulfonyl)-6-azaspiro[2.5]octan-2-yl]methyl]-1,3-dihydropyrrolo[3,4-c]pyridine-2-carboxamide], where the note is “Homo sapiens, A2780, 72 h”, the IC50 came to 55.4 nM. In other words, the double-digit nanomolar range. Same read-out and setting: then `CC(C)C(=O)N1CCC2(CC1)CC2CNC(=O)c1cc2cnccc2[nH]1` (stereo not drawn) [Example 12], with 2000 nM. On to `CC1(C)CC1C(=O)N1CCC2(CC1)CC2CNC(=O)N1Cc2ccncc2C1` (stereo not drawn) [Example 377, N-[[6-(2,2-dimethylcyclopropanecarbonyl)-6-azaspiro[2.5]octan-2-yl]methyl]-1,3-dihydropyrrolo[3,4-c]pyridine-2-carboxamide], for which, where the note is “Homo sapiens, A2780, 72 h”, the IC50 stood at 1.59 nM. Same read-out and setting: then `CC(C)(O)CCC(=O)N1CCC2(CC1)CC2CNC(=O)N1Cc2ccncc2C1` (stereo not drawn) [Example 360, N-[[6-(4-hydroxy-4-methyl-pentanoyl)-6-azaspiro[2.5]octan-2-yl]methyl]-1,3-dihydropyrrolo[3,4-c]pyridine-2-carboxamide], with 50.9 nM; and `CN(C)Cc1ccc(C(=O)N2CCC3(CC2)CC3CNC(=O)c2cc3ccncc3o2)cc1` (stereo not drawn) [Example 71, N-[[6-[4-[(dimethylamino)methyl]benzoyl]-6-azaspiro[2.5]octan-2-yl]methyl]furo[2,3-c]pyridine-2-carboxamide], with 13.7 nM. Regarding `O=C(CCc1ccccc1)N1CCC2(CC1)CC2CNC(=O)N1Cc2ccncc2C1` (stereo not drawn) [Example 199, N-[[6-(3-phenylpropanoyl)-6-azaspiro[2.5]octan-2-yl]methyl]-1,3-dihydropyrrolo[3,4-c]pyridine-2-carboxamide], under “Homo sapiens, A2780, 72 h”, the IC50 came out at 184 nM. Still for that read-out and setting: the figure for `O=C(NCC1CC12CCN(C(=O)c1cc(C(F)(F)F)[nH]n1)CC2)N1Cc2ccncc2C1` (stereo not drawn) [Example 396, N-[[6-[5-(trifluoromethyl)-1H-pyrazole-3-carbonyl]-6-azaspiro[2.5]octan-2-yl]methyl]-1,3-dihydropyrrolo[3,4-c]pyridine-2-carboxamdie] is 17.5 nM. Still for that read-out and setting: the figure for `CC(C)(O)COCC(=O)N1CCC2(CC1)CC2CNC(=O)N1Cc2ccncc2C1` (stereo not drawn) [Example 393, N-[[6-[2-(2-hydroxy-2-methyl-propoxy)acetyl]-6-azaspiro[2.5]octan-2-yl]methyl]-1,3-dihydropyrrolo[3,4-c]pyridine-2-carboxamide] is 18.5 nM.
